Assays:
[1] = test system: MCF-7 spheroid; experiment: MTT cytotoxicity assay, spheroids; format: cell-based, human; details: for IC50: MTT, 48 hours, drug added three days after seeding
Experimental: (§1) To check the effect of different drugs on the viability of spheroids, cells were seeded at 2.5×10^4 cells/well in 24-well ultra-low attachment plates and grown as spheroids. After 3 days, 6-shogaol (1–100 μM) or taxol (5 nM-50 μM) or curcumin (2–50 μM) was added to the wells and MTT assay was performed as explained above. Standard deviation was calculated from three independent experiments and the data were represented as the average of three experiments.

[2] = test system: HEK 293 cells; experiment: MTT cytotoxicity assay, noncancerous cells; format: cell-based, human
Experimental: (§2) Monolayer cells (5×10^3cells/well) were seeded in quadruplicates in 96 well plates and were incubated with varying concentrations of 6-shogaol (1–100 μM), taxol (0.2–100 nM) or curcumin (4–80 μM). The effect of the drugs on the viability of all the cell lines was quantified by MTT (3-[4,5-dimethylthiazol-2-yl]-2,5 diphenyltetrazolium bromide) assay at different time points after drug treatment using a Biorad Plate reader. The IC50 values were calculated from the plot of percentage cell viability versus concentration of drug using the nonlinear regression programme of Origin.

[3] = test system: HaCaT cells; experiment: MTT cytotoxicity assay, noncancerous cells; format: cell-based, human; details: 48 hours
Experimental: as §2

[4] = test system: MCF-7 monolayer cells; experiment: MTT cytotoxicity assay, monolayer; format: cell-based, human; details: drug added one day after seeding
Experimental: as §2

[5] = test system: MDA MB-231 spheroid; experiment: MTT cytotoxicity assay, spheroids; format: cell-based, human; details: for IC50: MTT, 48 hours, drug added three days after seeding
Experimental: as §1

[6] = test system: MDA-MB-231 monolayer cells; experiment: MTT cytotoxicity assay, monolayer; format: cell-based, human; details: drug added one day after seeding
Experimental: as §2

[7] = test system: MCF-7 spheroids; experiment: Secondary sphere formation; format: cell-based, human; details: for inhibition of secondary spheroid colonies: regrown 1 week without compound
Experimental: (§3) 5000 cells/well were seeded in ultra low attachment plates. After 3 days of seeding, the spheres formed were kept with different concentrations of 6-shogaol and/or 25 μM DAPT for 7 days and the number of spheres were counted under the microscope. These primary spheres were dispersed and kept in fresh media without any treatment and counted again after 7 days to check the ability to regrow into secondary spheres. Control primary spheres were also processed similarly for comparison. Spheres were counted in Olympus IX71 microscope using 10X objective.

[8] = test system: MCF-7 spheroid; experiment: Cell cycle analysis by flow cytometry (propidium iodide); format: cell-based, human; details: 25 μM, 48 hours; control 24%
Experimental: (§4) Cell cycle distribution of cells treated with 6-shogaol was analyzed by flow cytometric measurement of cellular DNA content. MCF-7 cells (5×10^5 cells/well) were subjected to 6-shogaol treatment for various time points. Culture media containing detached cells were collected and attached cells were trypsinized. Cells were pelleted, fixed in 70% (v/v) ethanol and stored at 4°C. In case of spheroids, cells were treated with different concentrations of 6-shogaol for 48 hours and fixed for further analysis. Before analysis, cells were re-washed with PBS and incubated with 10 μg/ml RNaseA and 400 μg/ml propidium iodide for 30 minutes at 37°C. Data were analyzed using FACS Diva software.

[9] = test system: MCF-7 monolayer; experiment: as above; format: cell-based, human; details: 16 μM (2×IC50), control 29%
Experimental: as §4

[10] = test system: breast cancer spheroids; experiment: Apoptosis detection in spheroids; format: cell-based, human; details: 40 μM, upto 72 or 96 hours
[11] = test system: LC3-II in MCF7 cells; experiment: Western blot of LC3-II expression; format: cell-based, human; details: 48 hours
Experimental: Lysates were placed into ice for 1 hour to ensure complete lysis followed by centrifugation at 14,000 g for 10 minutes and the supernatant was collected. Proteins were subjected to SDS-PAGE and transferred to polyvinylidene fluoride membrane. The membranes were blocked and incubated overnight with primary antibodies at 4°C followed by incubation with horseradish peroxidase tagged secondary antibodies. The blots were developed using ECL reagent. The primary antibodies were used in the following dilutions: Cleaved Notch1 (1:2000), Hes1 (1:200), Cyclin D1 (1:400), PARP (1:500 for sc) and (1:1000 for CST), LC3A/B (1:500), Bcl-2 (1:1000), Bax (1:1000) and β-actin (1:2000). β-actin was used as loading controls.
Densitometry was conducted for all the western blots using […] software (Bio-Rad). Normalisation was done according to the loading control and fold change was calculated with respect to the control. For graphs, results are depicted as mean ± standard error of mean or standard deviation (calculated from two or more experiments). The p-values were obtained using Student’s unpaired t-test and p < 0.05 was considered to be statistically significant.

[12] = test system: breast cancer spheroids (CD44+CD24-/low cells); experiment: Flow cytometric analysis of cell surface markers CD44/CD24; format: cell-based, human; details: 40 μM, 18 hours; untreated 27.3%
Experimental: Monolayer cells or spheroids (with or without treatment of 6-shogaol) were dispersed by trypsin-EDTA. Cells were then pelleted down by centrifugation at 1600 rpm for 5 minutes at 4°C and resuspended in 1 ml of DMEM containing 2% FBS. Fluorescein isothiocyanate (FITC)-conjugated CD24 monoclonal antibody and phycoerythrin (PE)-conjugated CD44 monoclonal antibody (BD Biosciences) were added in 1:100 dilution and incubated on ice for 45 minutes in dark. The cells were then analyzed by flow cytometer (BD FACS Aria II) for the expression of CD24 and CD44.

[13] = test system: MRC5, NP69, HaCaT and HMEC; parameters: method as in PMID 23612072; details: cited from earlier work
[14] = test system: MCF-7 spheroids; experiment: Primary sphere formation; format: cell-based, human
Experimental: as §3

[15] = test system: MCF-7 cells; experiment: Annexin V/PI flow-cytometric apoptosis assay; format: cell-based, human; details: 25 μM, 48 hours
Experimental: Apoptosis was quantified by using a FITC Annexin V Apoptosis Detection kit according to manufacturer’s instructions. MCF-7 cells were treated with 15 μM and 25 μM of 6-shogaol for 24, 48 and 72 hours, respectively. Attached and floating cells were collected and analyzed by a flow cytometer (BD FACS Aria II).

[16] = test system: MCF-7 cells; experiment: DAPI staining for apoptosis (chromatin condensation); format: cell-based, human; details: 25 μM
Experimental: Cells were seeded on cover slips. […] Cells were washed with PBS, fixed with Methanol-EDTA for 10 minutes at -20°C followed by rehydration with PBS at room temperature and incubated with 1 μg/ml DAPI. Mounted coverslips were visualised at 40X magnification under fluorescence microscope (Olympus IX71). Apoptotic cells were counted from five different fields.

**Q.** Which results are given for `COc1cc(/C=C/C(=O)CC(=O)/C=C/c2ccc(O)c(OC)c2)ccc1O` [Curcumin, curcumin]?
**A.** IC50 ([1]; Homo sapiens, MCF7): 7.27 ± 0.54 µM; IC50 ([2]; Homo sapiens, HEK293, 48 hours): 23.1 ± 0.68 µM; IC50 ([3]; Homo sapiens, HaCaT): 10.4 ± 0.87 µM; IC50 ([4]; Homo sapiens, MCF7, 48 hours): 37.1 ± 0.85 µM

**Q.** With `CC(=O)O[C@H]1C(=O)[C@@]2(C)[C@H]([C@H](OC(=O)c3ccccc3)[C@]3(O)C[C@H](OC(=O)[C@H](O)[C@@H](NC(=O)c4ccccc4)c4ccccc4)C(C)=C1C3(C)C)[C@]1(OC(C)=O)CO[C@@H]1C[C@@H]2O` [Taxol, reference compound] as the molecule, how does the IC50 ([1]; Homo sapiens, MCF7) read?
**A.** > 50 µM

**Q.** What about the IC50 ([5]; Homo sapiens, MDA-MB-231) of the same molecule?
**A.** > 20 µM

**Q.** What about the IC50 ([2]; Homo sapiens, HEK293, 48 hours) of the same molecule?
**A.** 0.1038 ± 0.00048 µM

**Q.** What about the IC50 ([3]; Homo sapiens, HaCaT) of the same molecule?
**A.** 0.0427 ± 0.00075 µM

**Q.** What about the IC50 ([6]; Homo sapiens, MDA-MB-231, 48 hours) of the same molecule?
**A.** 0.00286 ± 0.00066 µM

**Q.** What about the IC50 ([4]; Homo sapiens, MCF7, 48 hours) of the same molecule?
**A.** 0.00492 ± 0.00071 µM

**Q.** With `CCCCC/C=C/C(=O)CCc1ccc(O)c(OC)c1` [6-shogaol] as the molecule, how does the secondary sphere formation ([7]; concentrations above 10 μM) read?
**A.** Not a single secondary sphere was found

**Q.** And the “inhibition of secondary spheroid colonies” value ([7]; primary spheroids treated with 1 μM for 1 week, control ~55 colonies)?
**A.** 71%

**Q.** And the “inhibition of secondary spheroid colonies” value ([7]; primary spheroids treated with 5 μM for 1 week)?
**A.** 80%

**Q.** And the “inhibition of secondary spheroid colonies” value ([7]; primary spheroids treated with 10 μM for 1 week)?
**A.** 94.5%

**Q.** What about the “percentage of cells in G2/M” value [8] of the same molecule?
**A.** 42%

**Q.** What about the “percentage of cells in G2/M” value ([9]; 24h) of the same molecule?
**A.** 48%

**Q.** What about the “percentage of cells in G2/M” value ([9]; 48h) of the same molecule?
**A.** 55%

**Q.** What about the “apoptosis in breast cancer spheroids” value [10] of the same molecule?
**A.** not able to detect appreciable amount of apoptosis

**Q.** And the “fold increase in LC3-II expression” value ([11]; 5 μM 6-shogaol alone, relative to control)?
**A.** 1.8 fold

**Q.** What about the “fold increase in LC3-II expression” value ([11]; 5 μM 6-shogaol in combination with low concentration of chloroquine) of the same molecule?
**A.** 3.3 fold

**Q.** And the “fold increase in LC3-II expression” value ([11]; 15 μM 6-shogaol alone, relative to control)?
**A.** 2.1 fold

**Q.** And the “fold increase in LC3-II expression” value ([11]; 15 μM 6-shogaol in combination with low concentration of chloroquine)?
**A.** 3.43 fold

**Q.** What about the “percentage of CD44+CD24-/low cells (Q1)” value [12] of the same molecule?
**A.** 2.3%

**Q.** And the “toxicity to normal cells” value [13]?
**A.** not toxic

**Q.** What about the “inhibition of cell viability” value ([1]; 10 μM, after 6 days) of the same molecule?
**A.** 46%

**Q.** What about the “inhibition of cell viability” value ([1]; 10 μM, day 4) of the same molecule?
**A.** ~ 35%

**Q.** And the “inhibition of cell viability” value ([1]; 20 μM, day 4)?
**A.** 56%

**Q.** And the “inhibition of cell viability” value ([1]; 40 μM, day 4)?
**A.** 83%

**Q.** And the “effective concentration in spheroids versus monolayer cells” value ([1]; MCF-7 spheroids vs MCF-7 monolayer)?
**A.** 5 fold

**Q.** And the IC50 [1]?
**A.** 39.5 ± 0.62 µM

**Q.** And the “effective concentration in spheroids versus monolayer cells” value ([5]; MDA-MB-231 spheroids vs MDA-MB-231 monolayer)?
**A.** 2 fold

**Q.** What about the IC50 [5] of the same molecule?
**A.** 11.2 ± 0.83 µM

**Q.** What about the “potency against MDA-MB-231 spheroids versus MCF-7 spheroids” value ([5]; more potent against MDA-MB-231 spheroids) of the same molecule?
**A.** ~ 3 fold

**Q.** And the IC50 ([2]; 48 hours)?
**A.** 69.97 ± 0.52 µM

**Q.** What about the IC50 [3] of the same molecule?
**A.** 103.8 ± 0.67 µM

**Q.** And the IC50 ([6]; 48 hours)?
**A.** 5.67 ± 0.73 µM

**Q.** And the IC50 ([4]; 48 hours)?
**A.** 7.94 ± 0.57 µM

**Q.** And the “reduction of number of primary spheroid colonies” value ([14]; 1 μM, 7 days)?
**A.** 2 fold

**Q.** What about the “average number of spheroid colonies (primary)” value ([14]; 1 μM, 7 days continuous treatment, control 96) of the same molecule?
**A.** 48 colonies

**Q.** And the “inhibition of primary spheroid colonies” value ([14]; 40 μM, 7 days)?
**A.** 24 fold

**Q.** And the “number of spheroid colonies (primary)” value ([14]; 40 μM, 7 days continuous treatment, control 96)?
**A.** 4 colonies

**Q.** What about the “early apoptotic cells (Annexin positive/PI negative)” value [15] of the same molecule?
**A.** 11%

**Q.** And the “apoptosis as measured by chromatin condensation” value ([16]; 48 hours)?
**A.** 19%

**Q.** And the “apoptosis as measured by chromatin condensation” value ([16]; 72 hours)?
**A.** 28%

— article PMC4565635, “6-Shogaol Inhibits Breast Cancer Cells and Stem Cell-Like Spheroids by Modulation of Notch Signaling Pathway and Induction of Autophagic Cell Death” (PLoS ONE, 2015)
